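Each compound was tested at five concentrations against cells in 96-well plates for 48 hours. The concentration for 50% growth inhibition is given as GI50.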 Activity calls are given as the source filed them. Cut-off read from the data, not from the text of the source: active = GI50 up to about 1.1 µM and inactive = higher.
Columns and labels:
Assay in all cases: NCI anticancer screen, dose series, 48 h
NCI/ADR-RES = system: NCI/ADR-RES
IGROV-1 = system: IGROV-1
OVCAR-8 = system: OVCAR-8
M14 = system: M14
Hs-578T = system: Hs-578T
U-251 = system: U-251
HCC 2998 = system: HCC 2998
A549 = system: A549
SK-MEL-28 = system: SK-MEL-28
UO-31 = system: UO-31
SF-268 = system: SF-268
Malme-3M = system: Malme-3M
KM12 = system: KM12
RXF 393 = system: RXF 393
NCI-H522 = system: NCI-H522
SNB-19 = system: SNB-19
PC-3 = system: PC-3
K562 = system: K562
SN12C = system: SN12C
CCRF-CEM = system: CCRF-CEM

Row | SMILES | GI50 (NCI/ADR-RES) | GI50 (IGROV-1) | GI50 (OVCAR-8) | GI50 (M14) | GI50 (Hs-578T) | GI50 (U-251) | GI50 (HCC 2998) | GI50 (A549) | GI50 (SK-MEL-28) | GI50 (UO-31) | GI50 (SF-268) | GI50 (Malme-3M) | GI50 (KM12) | GI50 (RXF 393) | GI50 (NCI-H522) | GI50 (SNB-19) | GI50 (PC-3) | GI50 (K562) | GI50 (SN12C) | GI50 (CCRF-CEM)
1 | CC(C)(C)c1ccc(CN2CCN(C(c3ccccc3)c3ccc(Cl)cc3)CC2)cc1 (centres undefined) | > 100 µM (inactive) | > 100 µM (inactive) | > 100 µM (inactive) | 33.4 µM (inactive) | > 100 µM (inactive) | 45.1 µM (inactive) | 31 µM (inactive) | 32.5 µM (inactive) | 65.5 µM (inactive) | 63.5 µM (inactive) | 77.6 µM (inactive) | 45.6 µM (inactive) | 78 µM (inactive) | 24.4 µM (inactive) | 23.4 µM (inactive) | > 100 µM (inactive) | 57.3 µM (inactive) | 36.6 µM (inactive) | > 100 µM (inactive) | 
2 | O=C1c2cscc2C(=O)c2c(OCc3ccccc3)ccc(OCc3ccccc3)c21 | > 100 µM (inactive) | 83.2 µM (inactive) | > 100 µM (inactive) | > 100 µM (inactive) | > 100 µM (inactive) |  | 53.1 µM (inactive) | > 100 µM (inactive) | > 100 µM (inactive) | 62.5 µM (inactive) | > 100 µM (inactive) | > 100 µM (inactive) | > 100 µM (inactive) | 75.7 µM (inactive) | > 100 µM (inactive) | > 100 µM (inactive) | 78.5 µM (inactive) | 61.1 µM (inactive) | > 100 µM (inactive) | 53.8 µM (inactive)
3 | Nc1ccc2nc3ccc(N)cc3[n+](-c3ccccc3)c2c1 | 14.9 µM (inactive) | 37.3 µM (inactive) |  | 30.2 µM (inactive) | 40.6 µM (inactive) | 38.5 µM (inactive) | > 100 µM (inactive) | 45.4 µM (inactive) | > 100 µM (inactive) | > 100 µM (inactive) | 29 µM (inactive) | 18.6 µM (inactive) | 36 µM (inactive) | > 100 µM (inactive) | 11.6 µM (inactive) | 40.4 µM (inactive) | 29.3 µM (inactive) | 69.3 µM (inactive) | 25.4 µM (inactive) | > 100 µM (inactive)
4 | CC(C)OP(=O)(OC(C)C)/C(C#N)=C/c1ccco1 | > 100 µM (inactive) | > 100 µM (inactive) | > 100 µM (inactive) | > 100 µM (inactive) | > 100 µM (inactive) | > 100 µM (inactive) | > 100 µM (inactive) | > 100 µM (inactive) | > 100 µM (inactive) | 5.19 µM (inactive) | > 100 µM (inactive) | > 100 µM (inactive) | > 100 µM (inactive) | > 100 µM (inactive) | > 100 µM (inactive) | > 100 µM (inactive) | > 100 µM (inactive) | > 100 µM (inactive) | > 100 µM (inactive) | > 100 µM (inactive)
5 | O=[N+]([O-])c1ccc(Cl)c(/C=N/C23CC4CC(CC(C4)C2)C3)c1 | > 9.1 µM (inactive) | > 10 µM (inactive) | 4 µM (inactive) | > 6.22 µM (inactive) | > 10 µM (inactive) | > 7.48 µM (inactive) | > 10 µM (inactive) | > 10 µM (inactive) | > 10 µM (inactive) | > 10 µM (inactive) | > 10 µM (inactive) | > 10 µM (inactive) | > 9.48 µM (inactive) | > 10 µM (inactive) | > 10 µM (inactive) | > 10 µM (inactive) | > 10 µM (inactive) | 2.89 µM (inactive) | > 10 µM (inactive) | 3.8 µM (inactive)
6 | O=C1CC(=O)NC(NNS(=O)(=O)c2ccccc2)=N1 | > 100 µM (inactive) | > 100 µM (inactive) | > 100 µM (inactive) | > 100 µM (inactive) | > 100 µM (inactive) | > 100 µM (inactive) | > 100 µM (inactive) | > 100 µM (inactive) | > 100 µM (inactive) | > 100 µM (inactive) | > 100 µM (inactive) | > 100 µM (inactive) | > 100 µM (inactive) | > 100 µM (inactive) | > 100 µM (inactive) | > 100 µM (inactive) | > 100 µM (inactive) | > 100 µM (inactive) | > 100 µM (inactive) | > 100 µM (inactive)
7 | COc1cc2cc(C(=O)N3CC(CCl)c4c3cc(NC(=O)C(C)(C)c3ccccc3[N+](=O)[O-])c3ccccc43)[nH]c2c(OC)c1OC (centres undefined) | 1.12 µM (active) | 1.35 µM (inactive) | 0.951 µM (active) | 1.75 µM (inactive) | 9.33 µM (inactive) | 0.54 µM (active) | 6.15 µM (inactive) | 0.675 µM (active) | 7.16 µM (inactive) | 0.968 µM (active) | 1.88 µM (inactive) | 7.31 µM (inactive) | 1.86 µM (inactive) | 1.42 µM (inactive) | 1.99 µM (inactive) | 4.36 µM (inactive) | 1.16 µM (inactive) | 0.991 µM (active) | 4.23 µM (inactive) | 0.13 µM (active)
8 | COc1cc(C(=O)OC2CC34CCNC35CC(OC5(OC)C2O)c2cc3c(cc24)OCO3)ccc1O (centres undefined) | > 100 µM (inactive) | > 100 µM (inactive) | > 100 µM (inactive) | > 100 µM (inactive) | > 100 µM (inactive) | > 100 µM (inactive) | > 100 µM (inactive) | > 100 µM (inactive) | > 100 µM (inactive) |  | > 100 µM (inactive) | 8.11 µM (inactive) | > 100 µM (inactive) | > 100 µM (inactive) | > 100 µM (inactive) | > 100 µM (inactive) | > 100 µM (inactive) | > 100 µM (inactive) | > 100 µM (inactive) | > 100 µM (inactive)
9 | Cc1cc2c(c(S(=O)(=O)c3ccccc3[N+](=O)[O-])c1)NCCC2 | 50 µM (inactive) | 95.7 µM (inactive) | > 100 µM (inactive) | 69.8 µM (inactive) | > 100 µM (inactive) | 83.9 µM (inactive) | 91.2 µM (inactive) | 40.3 µM (inactive) | 54 µM (inactive) | 37.4 µM (inactive) | 83.6 µM (inactive) | 44.8 µM (inactive) | 63.8 µM (inactive) | > 100 µM (inactive) | 16.1 µM (inactive) | > 100 µM (inactive) | 27.9 µM (inactive) |  | 76.4 µM (inactive) | 
10 | CSc1ccc2c(c1)c(CCN)c(C)n2Cc1ccccc1Cl | 2.03 µM (inactive) | 1.61 µM (inactive) | 1.79 µM (inactive) | 1.72 µM (inactive) | 1.67 µM (inactive) | 1.66 µM (inactive) | 0.74 µM (active) | 1.68 µM (inactive) | 1.75 µM (inactive) | 1.52 µM (inactive) | 1.76 µM (inactive) | 1.69 µM (inactive) | 1.82 µM (inactive) | 1.4 µM (inactive) | 1.5 µM (inactive) | 1.77 µM (inactive) | 1.52 µM (inactive) | 1.69 µM (inactive) | 1.58 µM (inactive) | 1.51 µM (inactive)

Source: ChEMBL document CHEMBL1201862, “PubChem BioAssay data set” (2004)
